Measurements reported in patent US8859614B2 (University of Nebraska—Lincoln, priority 2008, dated 2014).
Where “and” joins values, the source holds several entries; their conditions need not be identical. Equal values may be shown once. Entries after “also recorded” stand apart in the source; their conditions may differ.

How the values were obtained:
MDA-MB-231 cells [1] = assay: MDA-MB-231 orthotopic xenografts in SCID/NOD mice; type: in vivo, human
Method: (§1) Details of the preclinical trial using picropodophyllin synthesized as described (Buchardt O, et al. J. Pharm. Sci. (1986), 75:1076-1080) and Erlotinib (purchased from Hwasun Biotechnology Co) are described in Results. The drugs were dissolved in DMSO and cremophor (9:1) and injected intraperitoneally. To calculate tumor volumes, the formula for a prolate spheroid (π/6×a×b2 or ˜a×b2/2, where a and b are the major and minor axis, respectively) was used. The lengths of axes were determined microscopically from sections of tumor nodules using a computer assisted morphometry system (SpotAdvanced VS. 4.0.1, Nikon Eclipse E400). For xenograft experiments, 5×10^6 MDA-MB-231 cells were injected bilaterally into the fat pads of mammary glands 3 and 4 of female SCID/NOD mice. […] For in vitro experiments, MDA-MB-231 cells were grown in DMEM supplemented with 10% fetal bovine serum. […] Cell viability (duplicates) was measured on days 2, 4 and 6 by using the Thiazolyl Blue Tetrazolium Bromide (MTT) colorimetric assay (Mosmann T, J. Immunol. Methods (1983), 65:55-63).
Nevertheless, in conjunction with the mouse data, these observations provide strong justification for further evaluations of the drug against human breast cancer.

[2] = target: T1, human Insulin-like Growth Factor I Receptor Kinase (IGF1 RK) domain (Homo sapiens, UniProt P08069); conditions: background statement; cited from earlier work
T1 construct: human Insulin-like Growth Factor I Receptor Kinase (IGF1 RK) domain
T1 sequence (P08069 999-1274 limits assumed): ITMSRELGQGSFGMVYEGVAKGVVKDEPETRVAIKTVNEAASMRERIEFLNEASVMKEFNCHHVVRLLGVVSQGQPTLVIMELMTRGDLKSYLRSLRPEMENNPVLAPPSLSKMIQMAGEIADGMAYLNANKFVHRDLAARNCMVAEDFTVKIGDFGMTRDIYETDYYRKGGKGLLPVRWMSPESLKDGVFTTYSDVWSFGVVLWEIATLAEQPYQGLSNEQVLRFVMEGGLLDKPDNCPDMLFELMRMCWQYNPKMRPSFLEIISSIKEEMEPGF

MDA-MB-231 cells [3] = assay: MDA-MB-231 in vitro cell viability (MTT assay); type: cell-based, human; conditions: PPP 500 nM; MTT on days 2, 4 and 6
Description: FIG. 8A-C. In vitro inhibition of Igf1r action. Representative experiments of pharmacological inhibition of IGF1R in MDA-MB-231 cells by picropodophyllin (A) or by IGF1R knockdown using a dominant-negative construct (B) or siRNA (C). The absorbance (mean values±S.E.M.) reflects cell numbers estimated from duplicate samples using the MTT assay (see Experimental Procedures). […] (B) Plasmid 486Stop (encoding dominant-negative IGF1R) or a control plasmid (pcDNA3) were introduced in MDA-MB-231 cells by nucleofection following the manufacturer's protocol (1.5 μg of plasmid DNA per […]; Amaxa Biosystems). The same method was used to introduce into these cells a 19-bp RNA duplex (R4) targeting IGR1R mRNA or a scrambled control duplex (Scr4; see SI Materials and Methods, for details). […]
Details of the preclinical trial using picropodophyllin synthesized as described (Buchardt O, et al. J. Pharm. Sci. (1986), 75:1076-1080) and Erlotinib (purchased from Hwasun Biotechnology Co) are described in Results. […] The lengths of axes were determined microscopically from sections of tumor nodules using a computer assisted morphometry system (SpotAdvanced VS. 4.0.1, Nikon Eclipse E400). […] Cell viability (duplicates) was measured on days 2, 4 and 6 by using the Thiazolyl Blue Tetrazolium Bromide (MTT) colorimetric assay (Mosmann T, J. Immunol. Methods (1983), 65:55-63).

[4] = tested on: Kras*-induced mammary carcinomas; assay: Drug treatment of Kras*-induced mouse mammary carcinomas; type: in vivo; conditions: for Macroscopic and histopathological effect on tumors and tumor components (in words): 3 weeks of treatment; for Tumor volume per gland / Tumor volume per gland (Table 10): Mean ± S.E.M.; for Tumor volume per gland / Tumor volume per gland, % of control (vehicle): i.p. once daily for 3 weeks, PPP 30 mg/kg, Erlotinib 50 mg/kg; for Tumor volume per gland: vehicle 217.8 ± 65.6; for Tumor volume per gland, % of control (vehicle): vehicle = 100; for Tumor volume per gland (Table 10): pooled vehicle controls 243.3 ± 68.9 (9 mice); for Potency relative to PPP against Kras*-induced mammary carcinomas: from % tumor volume versus control; for Tumor volume per gland, % of pooled vehicle control (Table 10): pooled vehicle control = 100
Method: as §1
First, the tumors developing in each gland tended to be multifocal and uneven, and progressively coalesced into larger masses precluding reliable evaluation.
After 21 days of treatment, the mice are sacrificed, weighed, and the initial tumors measured individually. In addition, tumors which were not palpable at the time of initial palpation, but had grown during the therapy period, are also isolated.
The efficacy of compounds 18 “(NB3)” and 21 “(NB6)” to ameliorate Kras*-induced mouse mammary carcinomas was tested. While testing NB3 and NB6 (4 mice each), 2 controls were added (2 tumor-bearing mice treated with vehicle).

[5] = tested on: murine breast cancer cell line derived from Kras* mice; assay: MTT cell growth assay on a Kras* breast cancer cell line; type: cell-based, mouse; conditions: for MTT colorimetric reading reflecting cell density, Day 2, Average / MTT colorimetric reading reflecting cell density, Day 2, individual duplicate wells / Inhibition of growth of the Kras* breast cancer cell line (in words): 500 nM, 48 h; for MTT colorimetric reading reflecting cell density, Day 2, Average: average of duplicates, Day 0 0.3675, no drug 0.792; for MTT colorimetric reading reflecting cell density, Day 2, individual duplicate wells: wells 1 and 2, Day 0 0.373/0.362, no drug 0.959/0.625
Method: A murine breast cancer cell line derived from Kras* mice was used to assay the effect of IGF1RK inhibitors. Approximately 30,000 cells/well were plated in a 24-well plate which corresponds to 20% confluence. The next day (Day 0 for the experiment) two of wells were treated with MTT (Thiazol Blue Tetrazolium), a substrate used in a colorimetric metabolic assay that reflects cell density. […] Forty-eight hours later the duplicate wells were assayed.

insulin receptor = insulin receptor (Homo sapiens, UniProt P06213); conditions: Girnita 2004; Vasilcanu 2008; cited from earlier work
Chain of insulin receptor (P06213 28-1382, species assumed): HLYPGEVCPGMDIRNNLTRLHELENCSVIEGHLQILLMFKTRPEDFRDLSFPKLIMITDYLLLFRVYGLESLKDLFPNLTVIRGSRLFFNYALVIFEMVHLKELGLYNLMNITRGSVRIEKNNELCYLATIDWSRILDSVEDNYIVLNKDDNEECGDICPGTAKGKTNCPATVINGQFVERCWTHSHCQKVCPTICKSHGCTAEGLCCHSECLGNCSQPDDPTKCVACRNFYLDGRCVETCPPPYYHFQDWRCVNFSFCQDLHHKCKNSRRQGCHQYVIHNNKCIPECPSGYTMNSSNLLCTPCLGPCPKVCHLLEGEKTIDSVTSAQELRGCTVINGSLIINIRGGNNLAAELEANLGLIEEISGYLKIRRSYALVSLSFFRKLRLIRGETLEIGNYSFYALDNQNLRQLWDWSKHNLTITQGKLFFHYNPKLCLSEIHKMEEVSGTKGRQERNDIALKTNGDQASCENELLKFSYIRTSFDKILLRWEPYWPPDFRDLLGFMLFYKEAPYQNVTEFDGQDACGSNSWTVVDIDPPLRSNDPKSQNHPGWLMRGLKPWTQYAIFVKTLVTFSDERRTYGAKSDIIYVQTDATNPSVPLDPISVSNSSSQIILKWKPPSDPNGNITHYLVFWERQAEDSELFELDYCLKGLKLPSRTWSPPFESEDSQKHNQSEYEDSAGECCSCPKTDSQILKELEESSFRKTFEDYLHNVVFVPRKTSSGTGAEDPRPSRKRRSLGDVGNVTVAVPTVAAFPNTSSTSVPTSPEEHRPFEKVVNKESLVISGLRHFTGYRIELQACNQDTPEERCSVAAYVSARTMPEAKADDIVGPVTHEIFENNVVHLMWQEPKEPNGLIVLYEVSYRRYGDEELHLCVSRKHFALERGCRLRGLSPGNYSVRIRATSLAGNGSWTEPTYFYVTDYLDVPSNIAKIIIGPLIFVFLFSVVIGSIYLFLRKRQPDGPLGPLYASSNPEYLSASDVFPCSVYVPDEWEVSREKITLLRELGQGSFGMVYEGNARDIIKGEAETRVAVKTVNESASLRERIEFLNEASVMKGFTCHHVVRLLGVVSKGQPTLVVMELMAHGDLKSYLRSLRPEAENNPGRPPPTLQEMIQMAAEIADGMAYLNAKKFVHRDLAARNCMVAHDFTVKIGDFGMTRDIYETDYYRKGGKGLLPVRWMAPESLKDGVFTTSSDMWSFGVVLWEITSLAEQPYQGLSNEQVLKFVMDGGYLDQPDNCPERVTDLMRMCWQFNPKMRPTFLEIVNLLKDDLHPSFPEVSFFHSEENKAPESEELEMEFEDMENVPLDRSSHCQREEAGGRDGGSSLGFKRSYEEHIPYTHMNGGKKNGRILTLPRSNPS

[6] = tested on: Kras*-induced mammary carcinomas; assay: Drug treatment of Kras*-induced mouse mammary carcinomas; type: in vivo

Row | SMILES | Macroscopic and histopathological effect on tumors and tumor components (in words) [4] | Tumor volume per gland [4] [mm^3] | Tumor volume per gland, % of control (vehicle) [4] | MTT colorimetric reading reflecting cell density, Day 2, Average [5] | MTT colorimetric reading reflecting cell density, Day 2, individual duplicate wells [5] | Tumor volume per gland (Table 10) [4] [mm^3] | Potency relative to PPP against Kras*-induced mammary carcinomas [4] | Tumor volume per gland, % of pooled vehicle control (Table 10) [4] [%] | Inhibition of growth of the Kras* breast cancer cell line (in words) [5] | further results
1 | COc1cc([C@@H]2c3cc4c(cc3[C@H](O)C3COC(=O)[C@H]32)OCO4)cc(OC)c1OC (single isomer, unassigned; (-)) [PPP, (−)-picropodophyllin] | marked reduction or even absence of the pale and squamous cell components; also recorded: dramatically smaller; also recorded: diminishes the size of pale cell tumors | 16.0 ± 9.1 | ~7% and 7.3% | 0.4775 | 0.478 and 0.477 | – | – | – | – | Tumor volume per gland, xenografts (MDA-MB-231 cells [1]; Mean ± S.E.M., SCID/NOD mice, PPP i.p. for 3 weeks, vehicle 304 ± 40.8): 215 ± 18.6 mm^3; Xenograft tumor growth versus vehicle-treated controls (in words) (MDA-MB-231 cells [1]; NOD/SCID mice, orthotopically injected MDA-MB-231 cells): attenuated; Tumor volume per gland, xenografts, % of vehicle (MDA-MB-231 cells [1]; SCID/NOD mice, PPP i.p. for 3 weeks, vehicle = 100): 70.7%; Effect on IGF1 RK kinase activity (in words) [2]: inhibits its kinase activity; In vitro viability of MDA-MB-231 cells (in words) (MDA-MB-231 cells [3]): drastically reduced; Total tumor volume per mouse ([4]; after 21 days of daily treatment, vehicle 653±219, p=0.05): 54±28 mm^3; % tumor volume in comparison with the control, normalized to the new control data ([4]; previous PPP value re-normalized to pooled vehicle control): 6.5%; Effect on the homologous insulin receptor (in words) (insulin receptor): not affected; Increase in apoptosis in the pale component (activated caspase 3 immunohistochemistry) versus vehicle ([6]; 3 days of administration): ~9 fold; Proliferation (proliferation indices) in tumors ([6]; 3 days of treatment): at control levels
2 | COc1cccc([C@@H]2c3cc4c(cc3[C@H](O)C3COC(=O)[C@H]32)OCO4)c1 (stereo partly drawn) [Compound 18, 4′,5′-Didemethoxy-(−)-picropodophyllin] | – | – | – | 0.5245 | 0.483 and 0.566 | 20.9 ± 10.8 | same potency as PPP | 6.5 | as effective as PPP | IC50 ([5]; Mus musculus, read-out: IC50 for growth inhibition of Kras* breast cancer cell line): ~400 nM
3 | COc1ccc([C@@H]2c3cc4c(cc3[C@H](O)C3COC(=O)[C@H]32)OCO4)cc1 (stereo partly drawn) [Compound 19, 3′,5′-Didemethoxy-(−)-picropodophyllin] | – | – | – | – | – | – | – | – | essentially no activity | –
4 | COc1cc(OC)cc([C@@H]2c3cc4c(cc3[C@H](O)C3COC(=O)[C@H]32)OCO4)c1 (stereo partly drawn) [Compound 21, 4′-Demethoxy-(−)-picropodophyllin] | – | – | – | 0.4845 | 0.505 and 0.464 | 2.1 ± 1.0 | 7 times | 0.9 | – | –
5 | C#Cc1cccc(Nc2ncnc3cc(OCCOC)c(OCCOC)cc23)c1 [Erlotinib] | reduced predominantly the pale cell component | 66.9 ± 29.3 | 30.7% | – | – | – | – | – | – | –
